In brackets after ≈: the same amount, converted by molar mass.
Columns and labels:
[1] = tested on: coxsackievirus type A7 (CA7); experiment: In vitro anti-picornavirus activity (MTT), CA7; type: cell-based; details: HeLa-S3 cells, MTT method, 37° C.
HRV1A (E28) = experiment: Anti-rhinovirus activity (MTT), HRV1A; type: cell-based, human rhinovirus; details: for IC50 HRV 1A: HeLa (Ohio strain) cells, MTT method, 33° C.
HRV 89 (41617-Gallo) = experiment: Anti-rhinovirus activity (MTT), HRV89; type: cell-based, human rhinovirus; design: Anti-Rhinovirus activity, HRV89: unit not given here; details: for IC50 HRV89: HeLa (Ohio strain) cells, MTT method, 33° C.
[2] = tested on: coxsackievirus type B4 (CB4,JVB); experiment: In vitro anti-picornavirus activity (MTT), CB4; type: cell-based; details: HeLa cells, MTT method, 37° C.
[3] = tested on: Poliovirus type 1 (Polio 1, Sabin); experiment: microbe, parasite or virus in culture; type: cell-based
[4] = tested on: human rhinovirus type 1B (HRV 1B, B632); experiment: Anti-rhinovirus activity (MTT), HRV1B; type: cell-based; design: Anti-Rhinovirus activity, HRV1B: unit not given here; details: for IC50 HRV1B: HeLa (Ohio strain) cells, MTT method, 33° C.
HRV 2 (HGP) = experiment: Anti-rhinovirus activity (MTT), HRV2; type: cell-based, human rhinovirus; design: Anti-Rhinovirus activity, HRV2: unit not given here; details: for IC50 HRV2: HeLa (Ohio strain) cells, MTT method, 33° C.
HRV14 (1059) = experiment: Anti-rhinovirus activity (MTT), HRV14; type: cell-based, human rhinovirus; details: for IC50 HRV 14: HeLa (Ohio strain) cells, MTT method, 33° C.
[5] = tested on: echovirus type 11 (Echo 11, Gregory); experiment: In vitro anti-picornavirus activity (MTT), Echo 11; type: cell-based; details: HeLa-S3 cells, MTT method, 37° C.
HeLa-S3 cells = experiment: Cytotoxicity (MTT, without virus), HeLa-S3; details: HeLa-S3, no virus, incubated for 4 days
HeLa (Ohio strain)cells = experiment: Cytotoxicity (MTT, without virus), HeLa(Ohio); details: HeLa(Ohio), no virus, incubated for 4 days
HeLa cells = experiment: Cytotoxicity (MTT, without virus), HeLa; details: HeLa, no virus, incubated for 4 days
HRV29 (5582) = experiment: Anti-rhinovirus spectrum (MTT), HRV29; type: cell-based, human rhinovirus; details: Table VII, rhinovirus serotype HRV29
HRV31 (41F) = experiment: Anti-rhinovirus spectrum (MTT), HRV31; type: cell-based, human rhinovirus; details: Table VII, rhinovirus serotype HRV31
HRV8(MRH) = experiment: Anti-rhinovirus spectrum (MTT), HRV8; type: cell-based, human rhinovirus; details: Table VII, rhinovirus serotype HRV8
HRV13 (353) = experiment: Anti-rhinovirus spectrum (MTT), HRV13; type: cell-based, human rhinovirus; details: Table VII, rhinovirus serotype HRV13
HRV3(FEB) = experiment: Anti-rhinovirus spectrum (MTT), HRV3; type: cell-based, human rhinovirus; details: Table VII, rhinovirus serotype HRV3
HRV41 (56110) = experiment: Anti-rhinovirus spectrum (MTT), HRV41; type: cell-based, human rhinovirus; details: Table VII, rhinovirus serotype HRV41
HRV50(A2#58) = experiment: Anti-rhinovirus spectrum (MTT), HRV50; type: cell-based, human rhinovirus; details: Table VII, rhinovirus serotype HRV50
HRV21 (47) = experiment: Anti-rhinovirus spectrum (MTT), HRV21; type: cell-based, human rhinovirus; details: Table VII, rhinovirus serotype HRV21
HRV61 (6669-CV39) = experiment: Anti-rhinovirus spectrum (MTT), HRV61; type: cell-based, human rhinovirus; details: Table VII, rhinovirus serotype HRV61
HRV36 (342H) = experiment: Anti-rhinovirus spectrum (MTT), HRV36; type: cell-based, human rhinovirus; details: Table VII, rhinovirus serotype HRV36
HRV16 (11757) = experiment: Anti-rhinovirus spectrum (MTT), HRV16; type: cell-based, human rhinovirus; details: Table VII, rhinovirus serotype HRV16
HRV10 (204-CV14) = experiment: Anti-rhinovirus spectrum (MTT), HRV10; type: cell-based, human rhinovirus; details: Table VII, rhinovirus serotype HRV10
HRV33 (1200) = experiment: Anti-rhinovirus spectrum (MTT), HRV33; type: cell-based, human rhinovirus; details: Table VII, rhinovirus serotype HRV33
HRV32 (363) = experiment: Anti-rhinovirus spectrum (MTT), HRV32; type: cell-based, human rhinovirus; details: Table VII, rhinovirus serotype HRV32
HRV5 = experiment: Anti-rhinovirus spectrum (MTT), HRV5; type: cell-based, human rhinovirus; details: Table VII, rhinovirus serotype HRV5
[6] = tested on: clinical isolate (89229T); experiment: microbe, parasite or virus in culture; type: cell-based, human rhinovirus; details: Table VII, clinical isolate (89229T)
HRV39 (209) = experiment: Anti-rhinovirus spectrum (MTT), HRV39; type: cell-based, human rhinovirus; details: Table VII, rhinovirus serotype HRV39

SMILES: CCn1c2c(c(=O)c3cc(C(C)C)ccc31)C(=NOC)c1ccccc1-2 [Compound C49, 5-Ethyl-8-isoproypl-11-methoxyimino-5,10-dihydro-11H-indeno[1,2-b]quinolin-10-one]
- IC50 CA7 [1]: 9.2 µg/mL (≈ 26.6 µM)
- IC50 HRV 1A (HRV1A (E28)): >10 µg/mL
- IC50 HRV89 (HRV 89 (41617-Gallo)): 2.1 µg/mL (≈ 6.06 µM)
- IC50 CB4 [2]: 2.3 µg/mL (≈ 6.64 µM)
- IC50 Polio 1 [3]: 0.52 µg/mL (≈ 1.5 µM)
- IC50 HRV1B [4]: 1.9 µg/mL (≈ 5.48 µM)
- IC50 HRV2 (HRV 2 (HGP)): 1.7 µg/mL (≈ 4.91 µM)
- IC50 HRV 14 (HRV14 (1059)): 5.5 µg/mL (≈ 15.9 µM)
- IC50 Echo 11 [5]: 0.26 µg/mL (≈ 0.751 µM)

SMILES: CCn1c2c(c(=O)c3cc(C(C)C)ccc31)C(N)c1ccccc1-2.Cl.Cl (stereo not shown)
- melting point: 200 °C (dec.)

SMILES: CCn1c2c(c(=O)c3cc(C(C)C)ccc31)C(OC)(c1ccccc1)c1ccccc1-2 (stereo not shown)
- melting point: 237 to 239 °C

SMILES: COc1ccc2c(c1)Cc1c-2n(C)c2ccc(CC(C)C)cc2c1=O [Compound B11]
- IC50 CA7 [1]: >2 µg/mL
- IC50 HRV 1A (HRV1A (E28)): 1.7 µg/mL (≈ 5.1 µM)
- Cytotoxicity CC50 HeLa-S3 (HeLa-S3 cells): >2 µg/mL
- Cytotoxicity CC50 HeLa(Ohio) (HeLa (Ohio strain)cells): >2 µg/mL
- IC50 HRV89 (HRV 89 (41617-Gallo)): 0.31 µg/mL (≈ 0.93 µM)
- IC50 CB4 [2]: 1.6 µg/mL (≈ 4.8 µM)
- IC50 Polio 1 [3]: 0.45 µg/mL (≈ 1.35 µM)
- IC50 HRV1B [4]: 0.36 µg/mL (≈ 1.08 µM)
- IC50 HRV2 (HRV 2 (HGP)): 0.34 µg/mL (≈ 1.02 µM)
- IC50 HRV 14 (HRV14 (1059)): 0.78 µg/mL (≈ 2.34 µM)
- Cytotoxicity CC50 HeLa (HeLa cells): >2 µg/mL
- IC50 Echo 11 [5]: 0.28 µg/mL (≈ 0.84 µM)

SMILES: Cc1c(-c2ccccc2)n(-c2cccc(F)c2)c2ccc(C(C)C)cc2c1=O [Compound A322]
- Anti-Rhinovirus activity, HRV29 (HRV29 (5582)): 0.080
- Anti-Rhinovirus activity, HRV31 (HRV31 (41F)): 0.045
- Anti-Rhinovirus activity, HRV8 (HRV8(MRH)): >1.0
- Anti-Rhinovirus activity, HRV13 (HRV13 (353)): 0.029
- Anti-Rhinovirus activity, HRV3 (HRV3(FEB)): >1.0
- Anti-Rhinovirus activity, HRV41 (HRV41 (56110)): 0.034
- Anti-Rhinovirus activity, HRV1A (HRV1A (E28); Table VII, rhinovirus serotype HRV1A, same method as above): >1.0
- Anti-Rhinovirus activity, HRV50 (HRV50(A2#58)): 0.023
- Anti-Rhinovirus activity, HRV21 (HRV21 (47)): 0.048
- Anti-Rhinovirus activity, HRV61 (HRV61 (6669-CV39)): 0.29
- Cytotoxicity CC50 HeLa(Ohio) (HeLa (Ohio strain)cells): >1 µg/mL
- IC50 HRV89 (HRV 89 (41617-Gallo)): 0.034 µg/mL (≈ 0.0915 µM)
- Anti-Rhinovirus activity, HRV89 (HRV 89 (41617-Gallo); Table VII, rhinovirus serotype HRV89): 0.034
- Anti-Rhinovirus activity, HRV36 (HRV36 (342H)): 0.085
- Anti-Rhinovirus activity, HRV16 (HRV16 (11757)): 0.030
- IC50 HRV1B [4]: 0.18 µg/mL (≈ 0.485 µM)
- Anti-Rhinovirus activity, HRV1B ([4]; Table VII, rhinovirus serotype HRV1B): 0.18
- Anti-Rhinovirus activity, HRV10 (HRV10 (204-CV14)): 0.013
- Anti-Rhinovirus activity, HRV33 (HRV33 (1200)): 0.17
- Anti-Rhinovirus activity, HRV32 (HRV32 (363)): 0.020
- IC50 HRV2 (HRV 2 (HGP)): 0.030 µg/mL (≈ 0.0808 µM)
- Anti-Rhinovirus activity, HRV2 (HRV 2 (HGP); Table VII, rhinovirus serotype HRV2): 0.030
- Anti-Rhinovirus activity, HRV14 (HRV14 (1059); Table VII, rhinovirus serotype HRV14): >1.0
- Anti-Rhinovirus activity, HRV5 (HRV5): >1.0
- Anti-rhinovirus activity Clinically isolated strain [6]: 0.017
- Anti-Rhinovirus activity, HRV39 (HRV39 (209)): 0.012

SMILES: CCc1ccc2c(c1)Cc1c-2n(C)c2ccc(C(C)C)cc2c1=O [Compound B8]
- IC50 CA7 [1]: 0.70 µg/mL (≈ 2.21 µM)
- IC50 HRV 1A (HRV1A (E28)): >1 µg/mL
- Cytotoxicity CC50 HeLa-S3 (HeLa-S3 cells): >1 µg/mL
- Cytotoxicity CC50 HeLa(Ohio) (HeLa (Ohio strain)cells): >1 µg/mL
- IC50 HRV89 (HRV 89 (41617-Gallo)): 0.12 µg/mL (≈ 0.378 µM)
- IC50 CB4 [2]: 0.60 µg/mL (≈ 1.89 µM)
- IC50 Polio 1 [3]: 0.19 µg/mL (≈ 0.599 µM)
- IC50 HRV1B [4]: 0.24 µg/mL (≈ 0.756 µM)
- IC50 HRV2 (HRV 2 (HGP)): 0.22 µg/mL (≈ 0.693 µM)
- IC50 HRV 14 (HRV14 (1059)): 0.40 µg/mL (≈ 1.26 µM)
- Cytotoxicity CC50 HeLa (HeLa cells): >1 µg/mL
- IC50 Echo 11 [5]: 0.17 µg/mL (≈ 0.536 µM)

— US7109338B2, “1,2-disubstituted 1,4-dihydro-4-oxoquinoline compounds” (priority 1999, dated 2006)
